The assay has as its target T1, mGlu5bR (metabotropic glutamate receptor type 5) (Rattus norvegicus, UniProt P31424).
T1 construct: gene Grm5; mGlu5bR^NL: NanoLuc fused at the N terminus of rat mGlu5bR, expressed in HEK293T cells
Put plainly: NanoBRET saturation binding in living HEK293T cells, displaced by […] MTEP; also NFAT-luciferase NAM assay. It is filed as cell-based.

Structures are written as SMILES.

T1 sequence (P31424 21-1203): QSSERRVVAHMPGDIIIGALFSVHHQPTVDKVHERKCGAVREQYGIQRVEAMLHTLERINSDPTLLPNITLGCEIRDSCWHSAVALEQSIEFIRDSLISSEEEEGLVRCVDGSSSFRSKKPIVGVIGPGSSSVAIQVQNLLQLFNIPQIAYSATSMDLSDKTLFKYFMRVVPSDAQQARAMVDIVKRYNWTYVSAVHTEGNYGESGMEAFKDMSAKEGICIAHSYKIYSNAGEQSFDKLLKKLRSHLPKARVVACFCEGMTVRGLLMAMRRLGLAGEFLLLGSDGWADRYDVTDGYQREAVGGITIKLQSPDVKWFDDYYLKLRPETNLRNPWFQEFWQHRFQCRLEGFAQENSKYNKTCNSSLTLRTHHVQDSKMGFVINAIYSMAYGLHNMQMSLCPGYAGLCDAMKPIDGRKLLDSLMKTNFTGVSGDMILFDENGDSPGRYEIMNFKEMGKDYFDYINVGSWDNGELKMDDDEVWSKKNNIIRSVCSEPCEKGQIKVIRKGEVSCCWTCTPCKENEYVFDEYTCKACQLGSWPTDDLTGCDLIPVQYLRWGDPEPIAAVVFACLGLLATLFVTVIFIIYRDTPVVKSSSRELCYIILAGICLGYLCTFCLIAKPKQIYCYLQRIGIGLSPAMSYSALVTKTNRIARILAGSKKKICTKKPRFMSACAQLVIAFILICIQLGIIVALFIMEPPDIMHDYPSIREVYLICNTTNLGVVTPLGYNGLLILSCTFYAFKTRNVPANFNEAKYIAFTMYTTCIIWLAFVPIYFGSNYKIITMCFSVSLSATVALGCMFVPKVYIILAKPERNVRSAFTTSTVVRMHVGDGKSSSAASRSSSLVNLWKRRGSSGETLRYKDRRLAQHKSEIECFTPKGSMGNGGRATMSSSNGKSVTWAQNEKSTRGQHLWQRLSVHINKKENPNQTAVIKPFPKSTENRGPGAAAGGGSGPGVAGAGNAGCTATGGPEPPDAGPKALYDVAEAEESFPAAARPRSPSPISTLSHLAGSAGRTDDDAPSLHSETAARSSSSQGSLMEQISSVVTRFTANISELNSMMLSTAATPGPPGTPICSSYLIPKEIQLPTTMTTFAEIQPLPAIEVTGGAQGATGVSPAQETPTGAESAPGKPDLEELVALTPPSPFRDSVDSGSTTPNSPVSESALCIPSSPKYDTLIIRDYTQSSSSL

As for `COc1ccc(C2=[N+]3C(=C(CCCCc4cn(CCCCCCCCN(C)CCCCCNC(=O)COc5cncc(C#Cc6csc(C)n6)c5)nn4)c4ccc(-c5ccc(OC)cc5)n4[B-]3(F)F)C=C2)cc1` [4e, N-(5-((8-(4-(4-(5,5-difluoro-3,7-bis(4-methoxyphenyl)-5H-4λ^4,5λ^4-dipyrrolo[1,2-c:2’,1’-f][1,3,2]diazaborinin-10-yl)butyl)-1H-1,2,3-triazol-1-yl)octyl)(methyl)amino)pentyl)-2-((5-((2-methylthiazol-4-yl)ethynyl)pyridin-3-yl)oxy)acetamide], binding was characterised by a dissociation constant (Kd) of 1400 ± 1200 nM.

`COc1ccc(C2=[N+]3C(=C(CCCCc4cn(CCOCCOCCOCCOCCOCCNC(=O)COc5cncc(C#Cc6csc(C)n6)c5)nn4)c4ccc(-c5ccc(OC)cc5)n4[B-]3(F)F)C=C2)cc1` [4a, N-(17-(4-(4-(5,5-difluoro-3,7-bis(4-methoxyphenyl)-5H-4λ^4,5λ^4-dipyrrolo [1,2-c:2’,1’-f][1,3,2]diazaborinin-10-yl)butyl)-1H-1,2,3-triazol-1-yl)-3,6,9,12,15-pentaoxaheptadecyl)-2-((5-((2-methylthiazol-4-yl)ethynyl)pyridin-3-yl)oxy)acetamide] displayed a Kd of 840 ± 740 nM.

As a reminder, the Kd is the equilibrium constant for the complex coming apart.
